Measured values reported in patent US20080014247A1, “METAL-CONTAINING FORMULATIONS AND METHODS OF USE” (Nucryst Pharmaceuticals, priority 2006, published 2008).

Key:
[1] = system: Ser. marcescens; test: Minimal bactericidal concentration (MBC) assay; format: cell-based, Serratia marcescens
Description: (§1) Minimal bactericidal concentration (MBC) assay—Overnight-grown MIC plates, prepared as described in Example 16, were evaluated to determine the MIC. Culture was then sampled from wells at and near the MIC using sterile inoculating loops, and transferred to fresh MHA plates to determine if viable bacteria remained. […] The MBC was determined as the well in the MIC plate which contained the lowest concentration of silver yielding no bacterial growth on the MHA plate.

[2] = system: E. coli; test: Minimal bactericidal concentration (MBC) assay; format: cell-based, Escherichia coli
Description: as §1

[3] = system: Shigella flexneri; test: MIC assay (microdilution); format: cell-based; details: ATCC 12022
[4] = system: Strep. pyogenes; test: Minimal bactericidal concentration (MBC) assay; format: cell-based, Streptococcus pyogenes
Description: as §1

[5] = system: Burkholderia dolosa; test: MIC assay (microdilution); format: cell-based
[6] = system: K. pneumoniae; test: Minimal bactericidal concentration (MBC) assay; format: cell-based, Klebsiella pneumoniae
Description: as §1

[7] = system: Proteus mirabilis; test: MIC assay (microdilution); format: cell-based; details: isolate NP405
[8] = system: Pseudomonas aeruginosa; test: MIC assay (microdilution); format: cell-based
[9] = system: Staphylococcus aureus; test: MIC assay (microdilution); format: cell-based
[10] = system: Prot. mirabilis; test: Minimal bactericidal concentration (MBC) assay; format: cell-based, Proteus mirabilis; details: isolate NP405
Description: as §1

[11] = system: B dolosa; test: Minimal bactericidal concentration (MBC) assay; format: cell-based, Burkholderia dolosa
Description: as §1

[12] = system: Staph epidermidis; test: Minimal bactericidal concentration (MBC) assay; format: cell-based, Staphylococcus epidermidis
Description: as §1

[13] = system: B. multivorans; test: Minimal bactericidal concentration (MBC) assay; format: cell-based, Burkholderia multivorans
Description: as §1

[14] = system: Burkholderia multivorans; test: MIC assay (microdilution); format: cell-based
[15] = system: Klebsiella pneumoniae; test: MIC assay (microdilution); format: cell-based
[16] = system: Streptococcus pneumoniae; test: MIC assay (microdilution); format: cell-based; details: lactate solutions
[17] = system: Serratia marcescens; test: MIC assay (microdilution); format: cell-based
[18] = system: Streptococcus pyogenes; test: MIC assay (microdilution); format: cell-based
[19] = system: Enterobacter cloacae; test: MIC assay (microdilution); format: cell-based
[20] = system: Escherichia coli; test: MIC assay (microdilution); format: cell-based
[21] = system: Ps. aeruginosa; test: Minimal bactericidal concentration (MBC) assay; format: cell-based, Pseudomonas aeruginosa
Description: as §1

[22] = system: Staph. aureus; test: Minimal bactericidal concentration (MBC) assay; format: cell-based, Staphylococcus aureus
Description: as §1

[23] = system: C. freundii; test: Minimal bactericidal concentration (MBC) assay; format: cell-based, Citrobacter freundii; details: isolate NP410
Description: as §1

[24] = system: Citrobacter freundii; test: MIC assay (microdilution); format: cell-based; details: isolate NP410
[25] = system: Staphylococcus epidermidis; test: MIC assay (microdilution); format: cell-based
[26] = system: Mycobacterium tuberculosis H37Ra (ATCC 25177); test: microbe, parasite or virus in culture; format: cell-based

## O=[N+]([O-])[O-].[Ag+] [AgNO3, silver nitrate]
[1]; isolate NP402
  MBC: 6 parts silver per million
[1]; isolate NP402, second entry
  MBC: 6 parts silver per million
[1]; isolate NP408
  MBC: 6 parts silver per million
[1]; isolate NP408, second entry
  MBC: 11 parts silver per million
[2]; ATCC 8739
  MBC: 0.4 parts silver per million
[2]; ATCC 43745
  MBC: 0.4 parts silver per million
[2]; isolate NP412
  MBC: 1 parts silver per million
[3]; formulation type Lactate
  MIC: 2 ppm
[3]; formulation type Water/Lecithin
  MIC: 2 ppm
[3]; formulation type Water/PVA
  MIC: 1 ppm
[4]; isolate NP303
  MBC: 10 parts silver per million
[4]; isolate NP304
  MBC: 21 parts silver per million
[4]; isolate NP306
  MBC: 21 parts silver per million
[5]; isolate A3
  MIC: 2 parts silver per million
[5]; isolate A4
  MIC: 2 parts silver per million
[6]; isolate NP401
  MBC: 3 parts silver per million
[6]; isolate NP403
  MBC: 6 parts silver per million
[6]; isolate NP403, second entry
  MBC: 3 parts silver per million
[6]; isolate NP406
  MBC: 1 parts silver per million
[7]
  MIC: 6 parts silver per million
[8]; ATCC 9027
  MIC: 1 parts silver per million
[8]; ATCC 27317
  MIC: 2 parts silver per million
[8]; P. aerug (ATCC), lactate solutions
  MIC: 3 µg/mL
[8]; P. aerug. (clin.), lactate solutions
  MIC: 3 µg/mL
[8]; isolate NP201
  MIC: 1 parts silver per million
[8]; isolate NP204
  MIC: 1 parts silver per million
[8]; isolate NP206
  MIC: 1 parts silver per million
[8]; isolate NP212, formulation type Lactate
  MIC: 2 ppm
[8]; isolate NP212, formulation type Water/Lecithin
  MIC: 3 ppm
[8]; isolate NP212, formulation type Water/PVA
  MIC: 3 ppm
[9]; ATCC 6538
  MIC: 6 parts silver per million
[9]; ATCC 700699
  MIC: 3 parts silver per million
[9]; S. aureus (ATCC), lactate solutions
  MIC: 11 µg/mL
[9]; S. aureus (clin.), lactate solutions
  MIC: 5 µg/mL
[9]; isolate NP101
  MIC: 6 parts silver per million
[9]; isolate NP102
  MIC: 6 parts silver per million
[9]; isolate NP103
  MIC: 6 parts silver per million
[10]
  MBC: 13 parts silver per million
[11]; isolate A3
  MBC: 3 parts silver per million
[11]; isolate A4
  MBC: 2 parts silver per million
[12]; ATCC 12228
  MBC: 3 parts silver per million
[12]; isolate NP136
  MBC: 3 parts silver per million
[13]; isolate B1
  MBC: 3 parts silver per million
[13]; isolate B2
  MBC: 3 parts silver per million
[13]; isolate B4
  MBC: 3 parts silver per million
[14]; isolate B1
  MIC: 3 parts silver per million
[14]; isolate B2
  MIC: 3 parts silver per million
[14]; isolate B4
  MIC: 2 parts silver per million
[15]; aerobic +
  MIC: 3 µg/mL
[15]; aerobic − (anaerobic)
  MIC: 3 µg/mL
[15]; isolate NP401
  MIC: 3 parts silver per million
[15]; isolate NP403
  MIC: 6 parts silver per million
[15]; isolate NP403, second entry
  MIC: 6 parts silver per million
[15]; isolate NP406
  MIC: 1 parts silver per million
[16]; S. pneumo (clin 314)
  MIC: 11 µg/mL
[16]; S. pneumo (clin 315)
  MIC: 21 µg/mL
[17]; aerobic +
  MIC: 6 µg/mL
[17]; aerobic − (anaerobic)
  MIC: 13 µg/mL
[17]; isolate NP402
  MIC: 6 parts silver per million
[17]; isolate NP402, second entry
  MIC: 6 parts silver per million
[17]; isolate NP408
  MIC: 6 parts silver per million
[17]; isolate NP408, second entry
  MIC: 11 parts silver per million
[18]; S. pyog (clin. 303), lactate solutions
  MIC: 3 µg/mL
[18]; S. pyog (clin. 304), lactate solutions
  MIC: 5 µg/mL
[18]; isolate NP303
  MIC: 3 parts silver per million
[18]; isolate NP304
  MIC: 6 parts silver per million
[18]; isolate NP306
  MIC: 6 parts silver per million
[19]; aerobic +
  MIC: 13 µg/mL
[19]; aerobic − (anaerobic)
  MIC: 25 µg/mL
[20]; ATCC 8739
  MIC: 0.4 parts silver per million
[20]; ATCC 43745
  MIC: 1 parts silver per million
[20]; E. coli (ATCC), lactate solutions
  MIC: 3 µg/mL
[20]; isolate NP412
  MIC: 1 parts silver per million
[21]; ATCC 27317
  MBC: 3 parts silver per million
[21]; isolate NP201
  MBC: 3 parts silver per million
[21]; isolate NP204
  MBC: 3 parts silver per million
[21]; isolate NP206
  MBC: 1 parts silver per million
[22]; ATCC 6538
  MBC: 6 parts silver per million
[22]; ATCC 700699
  MBC: 6 parts silver per million
[22]; isolate NP101
  MBC: 11 parts silver per million
[22]; isolate NP102
  MBC: 6 parts silver per million
[22]; isolate NP103
  MBC: 6 parts silver per million
[23]
  MBC: 3 parts silver per million
[24]
  MIC: 3 parts silver per million
[25]; ATCC 12228
  MIC: 3 parts silver per million
[25]; S. epiderm (ATCC), lactate solutions
  MIC: 3 µg/mL
[25]; isolate NP136
  MIC: 3 parts silver per million
[26]
  MIC: 2.5 μg/ml silver
